Test results from article PMC10891162 (Scientific Reports, 2024).
pIC50: −log10 of the molar value.

Experiments:
HEK293 cells = test: cAMP detection in HEK293 cells treated with Forskolin; assay type: cell-based; settings: 30 min treatment, Fig. 5D, n = 3
Protocol: (§1) Media was removed from wells and 5µL of the diluted compounds were added to each well. […] Plates were mixed on an orbital shaker for 5 min at 400 rpm. […] 5µL of 2% trichloroacetic acid (TCA, Fisher Scientific SA9410-500) in water were added to wells to terminate reactions and lyse cells. […] Plates were mixed on an orbital shaker for 5 min at 400 rpm. […] Plates were mixed on an orbital shaker for 5 min at 400 rpm then incubated for 30 min at room temperature. […] Luminescence signal was measured on a GloMax Discover Microplate Reader within 15 min.
(§2) The assays were conducted by treatment of cells followed by lysis with 2% TCA, which also terminates the reactions. Cell lysates were then incubated with antibodies and tracer diluted in 0.3 M Tris buffer (pH 9.0; for neutralization) for 30 min after which time the detection reagent was added.

β-Adrenergic receptor = test: cAMP detection in A375 cells, endogenous β-Adrenergic receptor; assay type: cell-based; settings: Fig. 5C, n = 3; for Change of cAMP levels, β-Adrenergic agonist: 5 min treatment; for Change of cAMP levels, β-Adrenergic antagonist: in the presence of 50 nM Isopreterenol
Protocol: as §1, §2

Dopamine D1 = Dopamine D1 (Homo sapiens, UniProt P21728); test: cAMP detection in HEK293 cells stably transfected with DRD1; assay type: cell-based; settings: n = 3
Protocol: as §1, §2

[1] = system: Anti-cAMP primary antibody (GenScript A01509); test: cAMP Lumit immunoassay: cAMP standard curve, specificity and competition testing; assay type: binding; settings: n = 2; for Luminescence signal drop on titration instead of cAMP (specificity): concentrations up to 10 µM, Fig. 2C,D; for Interference with cAMP standard curve: metabolite included at 10 µM in cAMP titration, Fig. 2E,F
PDE4A1A = target: T1, PDE4A1A (Homo sapiens, UniProt P27815); test: PDE4 inhibition study (cAMP Lumit detection); assay type: biochemical; settings: 20 ng PDE4A1A per reaction, 10 µM cAMP, n = 2, Fig. 4
T1 construct: purchased BPS Biosciences 60040
Protocol: Plates were mixed on an orbital shaker for 5 min at 400 rpm.

Adenosine receptor = test: cAMP detection in A375 cells, endogenous Adenosine receptor; assay type: cell-based; settings: 1 h treatment, Fig. 5D, n = 3
Protocol: as §1, §2

Dopamine D1, sequence (P21728 whole entry): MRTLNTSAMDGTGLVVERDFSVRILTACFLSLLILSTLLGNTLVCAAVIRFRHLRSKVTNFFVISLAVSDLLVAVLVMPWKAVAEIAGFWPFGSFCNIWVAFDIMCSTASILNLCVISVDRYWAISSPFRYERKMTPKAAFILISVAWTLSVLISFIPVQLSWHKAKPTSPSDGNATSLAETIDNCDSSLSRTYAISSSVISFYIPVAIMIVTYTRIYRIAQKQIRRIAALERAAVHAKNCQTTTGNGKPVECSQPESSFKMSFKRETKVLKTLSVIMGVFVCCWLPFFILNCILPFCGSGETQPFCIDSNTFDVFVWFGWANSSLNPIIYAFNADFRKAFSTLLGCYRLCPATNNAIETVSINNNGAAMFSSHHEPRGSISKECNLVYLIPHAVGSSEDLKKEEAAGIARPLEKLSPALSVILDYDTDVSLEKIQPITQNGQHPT
T1 sequence (P27815 1-647 isoform P27815-4): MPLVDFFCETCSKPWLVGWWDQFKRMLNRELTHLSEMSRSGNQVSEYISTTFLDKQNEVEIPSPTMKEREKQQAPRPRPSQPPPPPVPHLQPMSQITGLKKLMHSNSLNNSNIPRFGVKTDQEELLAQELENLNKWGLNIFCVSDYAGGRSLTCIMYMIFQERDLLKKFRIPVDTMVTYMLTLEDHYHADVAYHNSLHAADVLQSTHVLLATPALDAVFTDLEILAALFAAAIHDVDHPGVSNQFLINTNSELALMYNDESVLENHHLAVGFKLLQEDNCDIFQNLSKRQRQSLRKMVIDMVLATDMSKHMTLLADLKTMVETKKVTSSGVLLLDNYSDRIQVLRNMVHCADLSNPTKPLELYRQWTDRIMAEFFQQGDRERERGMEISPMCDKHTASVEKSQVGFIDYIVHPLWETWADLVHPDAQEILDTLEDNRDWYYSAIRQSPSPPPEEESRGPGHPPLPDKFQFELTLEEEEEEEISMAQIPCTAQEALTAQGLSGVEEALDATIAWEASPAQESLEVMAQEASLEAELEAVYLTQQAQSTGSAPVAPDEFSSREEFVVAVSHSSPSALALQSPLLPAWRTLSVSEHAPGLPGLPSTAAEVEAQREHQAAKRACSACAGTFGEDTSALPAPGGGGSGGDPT

C=C[C@@]1(C)CC(=O)[C@]2(O)[C@@]3(C)[C@@H](O)CCC(C)(C)[C@@H]3[C@H](O)[C@H](OC(C)=O)[C@@]2(C)O1 [Forskolin]
Change of cAMP levels (HEK293 cells): cAMP levels increase

CC(C)NCC(O)c1ccc(O)c(O)c1 (stereo not drawn) [Isopreterenol, Isoproterenol]
Change of cAMP levels, β-Adrenergic agonist (β-Adrenergic receptor): cAMP levels increase

Oc1cc2c(cc1O)C(c1ccccc1)CNCC2 (stereo not drawn) [SKF38393]
Change of cAMP levels, DRD1 agonist (Dopamine D1; HEK293 stably transfected with DRD1, 1 h treatment, Fig. 5A): cAMP levels increase

CN1CCc2cc(Cl)c(O)cc2[C@@H](c2ccccc2)C1 [SCH23390]
Change of cAMP levels, DRD1 antagonist (Dopamine D1; HEK293 stably transfected with DRD1, in the presence of 100 nM SKF38393, Fig. 5A): cAMP levels reduction

C=CCc1ccccc1OCC(O)CNC(C)C (stereo not drawn) [Alprenolol]
Change of cAMP levels, β-Adrenergic antagonist (β-Adrenergic receptor): cAMP levels reduction

CC(C)NCC(O)COc1cccc2ccccc12 (stereo not drawn) [Propranolol]
Change of cAMP levels, β-Adrenergic antagonist (β-Adrenergic receptor): cAMP levels reduction

Nc1nc2c(ncn2[C@@H]2O[C@@H]3COP(=O)(O)O[C@H]3[C@H]2O)c(=O)[nH]1 [cGMP, cyclic guanosine monophosphate]
Luminescence signal drop on titration instead of cAMP (specificity) [1]: None of the tested metabolites resulted in a significant luminescence signal drop | Interference with cAMP standard curve [1]: no effect

CNC[C@H](O)c1ccc(O)c(O)c1 [Epinephrine]
Change of cAMP levels, β-Adrenergic agonist (β-Adrenergic receptor): cAMP levels increase

CCOc1ccccc1C(=O)NCc1coc(-c2ccc(OC(F)F)c(OC(C)C)c2)n1 [Difamilast]
pIC50 (PDE4A1A): 8.14

Nc1nc2c(ncn2[C@@H]2O[C@@H]3COP(=O)(O)O[C@H]4[C@@H](O)[C@H](n5cnc6c(N)ncnc65)O[C@@H]4COP(=O)(O)O[C@@H]2[C@@H]3O)c(=O)[nH]1 [2′3′-cGAMP, 2′3′-cyclic guanosine monophosphate-adenosine monophosphate]
Luminescence signal drop on titration instead of cAMP (specificity) [1]: None of the tested metabolites resulted in a significant luminescence signal drop | Interference with cAMP standard curve [1]: no effect

CCNC(=O)[C@H]1O[C@@H](n2cnc3c(N)ncnc32)[C@H](O)[C@@H]1O [NECA]
Change of cAMP levels, Adenosine receptor agonist (Adenosine receptor): cAMP levels increase

Nc1nc2c(ncn2[C@@H]2O[C@@H]3COP(=O)(O)O[C@H]4[C@@H](O)[C@H](n5cnc6c(N)ncnc65)O[C@@H]4COP(=O)(O)O[C@H]3[C@H]2O)c(=O)[nH]1 [3′3′-cGAMP, 3′3′-cyclic guanosine monophosphate-adenosine monophosphate]
Luminescence signal drop on titration instead of cAMP (specificity) [1]: None of the tested metabolites resulted in a significant luminescence signal drop | Interference with cAMP standard curve [1]: no effect
